Measurements taken from ChEMBL document CHEMBL1201862, “PubChem BioAssay data set” (2004).
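Where inhibition never reached the appropriate level, the endpoint shown equals the highest concentration tested. Otherwise, values were interpolated linearly from a five-concentration, 48-hour dose response in 96-well plates. The concentration for 50% growth inhibition is given as GI50.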 Calls of active or inactive are those of the source. Rule as the data show it: active = GI50 up to about 1.1 µM and inactive = higher.

Columns and labels:
Experiment in all cases: NCI tumour cell line growth inhibition, 48 h
[1] = test system: DU-145
[2] = test system: NCI-H23
[3] = test system: HCT-116
[4] = test system: Malme-3M
[5] = test system: HOP-62
[6] = test system: HT-29
[7] = test system: TK-10
[8] = test system: NCI-H226
[9] = test system: M14
[10] = test system: NCI-H522
[11] = test system: HCT-15
[12] = test system: SF-295
[13] = test system: RXF 393
[14] = test system: UACC-257
[15] = test system: U-251
[16] = test system: SN12C
[17] = test system: UACC-62
[18] = test system: UO-31
[19] = test system: ACHN
[20] = test system: PC-3

Structure (SMILES)	GI50 [1]	GI50 [2]	GI50 [3]	GI50 [4]	GI50 [5]	GI50 [6]	GI50 [7]	GI50 [8]	GI50 [9]	GI50 [10]	GI50 [11] [µM]	GI50 [12]	GI50 [13]	GI50 [14]	GI50 [15]	GI50 [16]	GI50 [17]	GI50 [18]	GI50 [19]	GI50 [20]
COC(CN(C=O)[C@@H](c1ccc(Cl)cc1)c1cc2ccccc2o1)OC	14.8 µM (inactive)	18.5 µM (inactive)	15.8 µM (inactive)	0.397 µM (active)	22 µM (inactive)	17.1 µM (inactive)	15.5 µM (inactive)	18.1 µM (inactive)	17.3 µM (inactive)	14.5 µM (inactive)	17	16.9 µM (inactive)	14.6 µM (inactive)	14 µM (inactive)	17.3 µM (inactive)	17.2 µM (inactive)	14.8 µM (inactive)	16.5 µM (inactive)	20.8 µM (inactive)	17.3 µM (inactive)
COC(=O)c1ccccc1C#CC#Cc1ccccc1C(=O)OC	> 10 µM (inactive)	> 10 µM (inactive)	> 10 µM (inactive)	6.79 µM (inactive)	> 10 µM (inactive)	6.4 µM (inactive)	> 10 µM (inactive)	5.48 µM (inactive)	> 10 µM (inactive)	> 10 µM (inactive)	7.35	> 10 µM (inactive)	> 10 µM (inactive)	> 10 µM (inactive)	> 10 µM (inactive)	> 10 µM (inactive)	> 10 µM (inactive)	> 10 µM (inactive)	> 10 µM (inactive)	9.06 µM (inactive)
O=[N+]([O-])c1ccc2c(c1)/C(=N/N=C1c3ccccc3Cc3ccccc31)c1cc([N+](=O)[O-])cc([N+](=O)[O-])c1-2	5.82 µM (inactive)	1.96 µM (inactive)	1.57 µM (inactive)	2.79 µM (inactive)	3.01 µM (inactive)	1.97 µM (inactive)	4.29 µM (inactive)	13.4 µM (inactive)	2.49 µM (inactive)	1.63 µM (inactive)	2.14	1.93 µM (inactive)	2.61 µM (inactive)	2.08 µM (inactive)	3.24 µM (inactive)	1.67 µM (inactive)	2.62 µM (inactive)	2.05 µM (inactive)	2.99 µM (inactive)	2.76 µM (inactive)
C/C(=N\Nc1ccc2ccccc2n1)c1ccccc1O	> 100 µM (inactive)	> 100 µM (inactive)	> 100 µM (inactive)	> 100 µM (inactive)	14 µM (inactive)	8.15 µM (inactive)	> 86.3 µM (inactive)	> 90.2 µM (inactive)	> 100 µM (inactive)	> 100 µM (inactive)	11.4	8.07 µM (inactive)	> 72.6 µM (inactive)	> 100 µM (inactive)	54.1 µM (inactive)	> 100 µM (inactive)	> 100 µM (inactive)	70.8 µM (inactive)	> 100 µM (inactive)	> 100 µM (inactive)
CCN(CCN(CC)C(=O)Nc1ccccc1)C(=O)Nc1ccccc1	> 100 µM (inactive)	> 100 µM (inactive)	> 100 µM (inactive)	> 100 µM (inactive)	> 100 µM (inactive)	> 100 µM (inactive)	> 100 µM (inactive)	> 100 µM (inactive)	> 100 µM (inactive)	> 100 µM (inactive)	> 100	> 100 µM (inactive)	> 100 µM (inactive)	> 100 µM (inactive)	> 100 µM (inactive)	> 100 µM (inactive)	> 100 µM (inactive)	> 100 µM (inactive)	> 100 µM (inactive)	> 100 µM (inactive)
CC1=NN(C(=O)CC(=O)Nc2ccc(Cl)cc2)C(=O)C1/N=N\c1ccc(S(=O)(=O)c2ccc(/N=N/C3C(=O)N(C(=O)CC(=O)Nc4ccc(Cl)cc4)N=C3C)cc2)cc1 (centres undefined)	> 100 µM (inactive)	> 100 µM (inactive)	> 100 µM (inactive)	> 100 µM (inactive)	54.5 µM (inactive)	> 100 µM (inactive)	35.7 µM (inactive)	> 100 µM (inactive)	65.2 µM (inactive)	> 100 µM (inactive)	60.8	> 100 µM (inactive)	41.5 µM (inactive)	> 100 µM (inactive)	22.4 µM (inactive)	> 100 µM (inactive)	> 100 µM (inactive)	> 100 µM (inactive)	24.7 µM (inactive)	> 100 µM (inactive)
CCOP(C)(=O)C(Nc1ccc(F)cc1)c1ccc(F)cc1 (centres undefined)	> 100 µM (inactive)	> 100 µM (inactive)	> 100 µM (inactive)	> 100 µM (inactive)	> 100 µM (inactive)	> 100 µM (inactive)	> 100 µM (inactive)	> 100 µM (inactive)	> 100 µM (inactive)	> 100 µM (inactive)	> 100	> 100 µM (inactive)	> 100 µM (inactive)	> 100 µM (inactive)	> 100 µM (inactive)	> 100 µM (inactive)	> 100 µM (inactive)	71.3 µM (inactive)	> 100 µM (inactive)	> 100 µM (inactive)
Cc1cc(SCC(=O)c2ccccc2)nc2ccccc12	> 100 µM (inactive)	> 100 µM (inactive)	> 100 µM (inactive)	> 100 µM (inactive)	88.9 µM (inactive)	40.1 µM (inactive)	> 100 µM (inactive)	> 100 µM (inactive)	92.3 µM (inactive)	53.7 µM (inactive)	> 100	> 100 µM (inactive)	> 100 µM (inactive)	> 100 µM (inactive)	> 100 µM (inactive)	> 100 µM (inactive)	> 100 µM (inactive)	73.5 µM (inactive)	> 100 µM (inactive)	> 100 µM (inactive)
Cc1cccc2nc(-c3ccccc3)cc(=O)n12	> 100 µM (inactive)	> 100 µM (inactive)	> 100 µM (inactive)	> 100 µM (inactive)	> 100 µM (inactive)	> 100 µM (inactive)	68.7 µM (inactive)	30.1 µM (inactive)	> 100 µM (inactive)	58.9 µM (inactive)	94	> 100 µM (inactive)	51.8 µM (inactive)	91.8 µM (inactive)	> 100 µM (inactive)	69.2 µM (inactive)	44.1 µM (inactive)		43.1 µM (inactive)	43.7 µM (inactive)
c1ccc(-c2cc(-c3cc(-c4ccccn4)[nH]n3)n[nH]2)nc1	95.7 µM (inactive)	95.5 µM (inactive)	27.7 µM (inactive)	> 100 µM (inactive)	92.9 µM (inactive)	38.8 µM (inactive)		> 100 µM (inactive)	30.8 µM (inactive)	> 100 µM (inactive)	55.7	85.5 µM (inactive)	> 100 µM (inactive)	> 100 µM (inactive)	> 100 µM (inactive)	27.6 µM (inactive)	> 100 µM (inactive)	22.6 µM (inactive)	> 100 µM (inactive)	> 100 µM (inactive)
COc1ccc(N2C(=O)CC(=O)N(C(=O)COc3ccc(OCC(=O)N4C(=O)CC(=O)N(c5ccc(OC)cc5)C4=S)cc3)C2=S)cc1	49.9 µM (inactive)	38.1 µM (inactive)	15.7 µM (inactive)	68.2 µM (inactive)		47.8 µM (inactive)	44.3 µM (inactive)	30.5 µM (inactive)	54.5 µM (inactive)	35.5 µM (inactive)	48.6	36.8 µM (inactive)	23.7 µM (inactive)	43.9 µM (inactive)	37.1 µM (inactive)	43.3 µM (inactive)	29.2 µM (inactive)	42.5 µM (inactive)	42.1 µM (inactive)	41 µM (inactive)
O=C1c2ccccc2-c2nnc3c(c21)Cc1ccccc1C3	> 10 µM (inactive)	> 10 µM (inactive)	> 10 µM (inactive)	> 10 µM (inactive)	> 10 µM (inactive)	> 10 µM (inactive)	> 10 µM (inactive)	> 10 µM (inactive)	> 10 µM (inactive)	> 10 µM (inactive)	> 10	> 10 µM (inactive)	> 10 µM (inactive)		> 10 µM (inactive)	> 10 µM (inactive)	> 10 µM (inactive)	> 10 µM (inactive)	> 10 µM (inactive)	9.53 µM (inactive)
COC1CC(O[C@H]2CC[C@@]3(C)[C@@H](CC[C@]4(O)[C@@H]3CC[C@]3(C)[C@@H](C(C)=O)[C@H](OC(=O)CC(C)C)[C@@H](OC(=O)c5ccccc5)[C@@]34O)C2)OC(C)C1OC1CC(OC)C(OC2OC(C)C(O)C(OC)C2O)C(C)O1 (some centres undefined)	> 25 µM (inactive)	> 25 µM (inactive)	10.4 µM (inactive)	18.5 µM (inactive)	16 µM (inactive)	11.9 µM (inactive)	18.3 µM (inactive)	13.6 µM (inactive)	16.1 µM (inactive)	13.1 µM (inactive)	9.95	16.9 µM (inactive)	> 25 µM (inactive)	> 25 µM (inactive)	18 µM (inactive)	> 25 µM (inactive)		9.46 µM (inactive)	24.4 µM (inactive)	11.7 µM (inactive)
CCC(=O)COc1ccc(NC(NC(=O)C(C(F)(F)F)C(F)(F)F)(C(F)(F)F)C(F)(F)F)cc1	22.2 µM (inactive)	36.5 µM (inactive)	20.6 µM (inactive)	27 µM (inactive)	> 100 µM (inactive)	22.7 µM (inactive)	37 µM (inactive)	19.2 µM (inactive)	47.8 µM (inactive)	18.4 µM (inactive)	27.5	66.4 µM (inactive)	18.6 µM (inactive)	53.7 µM (inactive)	46.7 µM (inactive)	> 10 µM (inactive)		39.8 µM (inactive)	33.5 µM (inactive)	48.1 µM (inactive)
